Results: ChEMBL document CHEMBL4219083, “Reduction of Circulating Cancer Cells and Metastases in Breast-Cancer Models by a Potent EphA2-Agonistic Peptide-Drug Conjugate” (J Med Chem, 2018)
Calls of active or inactive are those of the source. The rule behind the calls is not given here.

How the values were obtained:
4T1 [1] = assay: Antimetastatic activity against mouse 4T1 cells implanted in BALB/c mouse assessed as reduction in gross lung-metastasis count at 24.5 mg/kg administered thrice per week for 2 weeks after 15 days post implantation relative to control; assay type: functional; set-up: scale not given: the % may be the effect or the level left
MDA-MB-231 [2] = assay: Antimetastatic activity against human MDA-MB-231 cells xenografted in NOD-scid mouse assessed as reduction in circulating tumor cells at 24.5 mg/kg, iv administered thrice per week for 2 weeks immunofluorescent staining-based assay; assay type: functional, organism-based
MDA-MB-231 [3] = assay: Antimetastatic activity against human MDA-MB-231 cells xenografted in NOD-scid mouse assessed as reduction in tumor burden at 24.5 mg/kg, iv administered thrice per week for 2 weeks; assay type: functional, organism-based
Mus musculus = assay: Toxicity in BALB/c mouse implanted with mouse 4T1 cells assessed as reduction in body weight at 24.5 mg/kg administered thrice per week for 2 weeks after 15 days post implantation; assay type: organism-based; details: in vivo
4T1 [4] = assay: Antimetastatic activity against mouse 4T1 cells implanted in BALB/c mouse assessed as reduction in CD31-expressing vasculature at 24.5 mg/kg administered thrice per week for 2 weeks after 15 days post implantation by immunostaining-based assay; assay type: functional, organism-based
4T1 [5] = assay: Antimetastatic activity against mouse 4T1 cells implanted in BALB/c mouse assessed as reduction in microscopic lung nodules at 24.5 mg/kg administered thrice per week for 2 weeks after 15 days post implantation by H and E staining-based assay; assay type: functional, organism-based

Question: How did the Activity (4T1 [1]) turn out when `CCCC[C@H](NC(=O)[C@@H]1CCCN1C(=O)[C@@H](NC(=O)[C@H](CO)NC(=O)[C@H](CC(=O)O)NC(=O)[C@@H]1CCCN1C(=O)[C@H](Cc1ccc(O)cc1)NC(=O)[C@H](C)NC(=O)[C@H](CO)NC(=O)COc1ccc(F)c(Cl)c1)C(C)C)C(=O)N[C@@H](CCO)C(=O)N[C@@H](CO)C(=O)NCC(=O)NCCCC[C@H](NC(=O)CNC(=O)[C@H](CO)NC(=O)[C@H](CCO)NC(=O)[C@H](CCCC)NC(=O)[C@@H]1CCCN1C(=O)[C@@H](NC(=O)[C@H](CO)NC(=O)[C@H](CC(=O)O)NC(=O)[C@@H]1CCCN1C(=O)[C@H](Cc1ccc(O)cc1)NC(=O)[C@H](C)NC(=O)[C@H](CO)NC(=O)COc1ccc(F)c(Cl)c1)C(C)C)C(=O)NCC(=O)N[C@H](CCCCNC(=O)CCCc1cn(CCCCCC(=O)O[C@@H](C(=O)O[C@H]2C[C@@]3(O)[C@@H](OC(=O)c4ccccc4)[C@@H]4[C@]5(OC(C)=O)CO[C@@H]5C[C@H](O)[C@@]4(C)C(=O)[C@H](OC(C)=O)C(=C2C)C3(C)C)[C@@H](NC(=O)c2ccccc2)c2ccccc2)nn1)C(=O)NCC(=O)O` was run?
Answer: The Activity was >75%.

Question: What about the Activity (MDA-MB-231 [2]) of the same compound?
Answer: Its Activity is “Active”.

Question: What about the Activity (MDA-MB-231 [3]) of the same compound?
Answer: The Activity was “Active”.

Question: And the Activity (Mus musculus)?
Answer: Its Activity is “Non-Toxic”.

Question: What about the Activity (4T1 [4]) of the same compound?
Answer: The Activity was “Active”.

Question: And the Activity (4T1 [5])?
Answer: The Activity was “Active”.
